Results from patent publication US11760722B2 (priority 2022, dated 2023).
Like-named read-outs stand apart in the source and are kept apart here.

Tested on: SARS-CoV-2 Delta USA/MD-HP05647/2021 (Lineage B.1.617.2)
Assay: microbe, parasite or virus in culture
Format: cell-based
Conditions: read-out: Vero E6 Delta CPE/EC50

CC(C)(C)[C@H](NC(=O)C12CC(C1)C2)C(=O)N1C[C@H]2[C@@H]([C@H]1C(=O)N[C@H](C#N)C[C@@H]1CCNC1=O)C2(C)C [Compound 20]
EC50 (Severe acute respiratory syndrome coronavirus 2, Vero C1008, 4 h): 0.377 µM
EC50: 0.392 µM
